Experimental data taken from the NIST ThermoML archive (doi:10.1016/j.fluid.2012.03.005).
± gives the expanded uncertainty stated by the source.

Conditions: for surface tension liquid-gas: Pendant drop shape; for mass density: 101.33 kPa, Liquid, Vibrating tube method

## CCCCCCCCCCCCCC[P+](CCCCCC)(CCCCCC)CCCCCC.[Br-] [tetradecyltrihexylphosphonium bromide]
293.15 K
  surface tension liquid-gas: 29.97 ± 0.81 mN/m
  mass density: 961.7 ± 5 kg/m3
297.15 K
  mass density: 959.2 ± 5 kg/m3
298.15 K
  surface tension liquid-gas: 29.32 ± 0.79 mN/m
  mass density: 958.6 ± 5 kg/m3
301.15 K
  mass density: 956.7 ± 5 kg/m3
303.15 K
  surface tension liquid-gas: 28.94 ± 0.78 mN/m
  mass density: 955.5 ± 4.9 kg/m3
305.15 K
  mass density: 954.3 ± 4.9 kg/m3
308.15 K
  surface tension liquid-gas: 28.53 ± 0.77 mN/m
  mass density: 952.4 ± 4.9 kg/m3
309.15 K
  mass density: 951.8 ± 4.9 kg/m3
313.15 K
  surface tension liquid-gas: 28.15 ± 0.76 mN/m
  mass density: 949.3 ± 4.9 kg/m3
317.15 K
  mass density: 946.9 ± 4.9 kg/m3
318.15 K
  surface tension liquid-gas: 27.81 ± 0.75 mN/m
  mass density: 946.2 ± 4.9 kg/m3
321.15 K
  mass density: 944.4 ± 4.8 kg/m3
323.15 K
  surface tension liquid-gas: 27.46 ± 0.75 mN/m
  mass density: 943.1 ± 4.8 kg/m3
325.15 K
  mass density: 941.9 ± 4.8 kg/m3
328.15 K
  surface tension liquid-gas: 27.12 ± 0.74 mN/m
  mass density: 940.1 ± 4.8 kg/m3
329.15 K
  mass density: 939.4 ± 4.8 kg/m3
333.15 K
  surface tension liquid-gas: 26.78 ± 0.73 mN/m
  mass density: 937 ± 4.8 kg/m3
337.15 K
  mass density: 934.6 ± 4.7 kg/m3
338.15 K
  surface tension liquid-gas: 26.57 ± 0.72 mN/m
  mass density: 934 ± 4.7 kg/m3
341.15 K
  mass density: 932.1 ± 4.7 kg/m3
343.15 K
  surface tension liquid-gas: 26.24 ± 0.71 mN/m
  mass density: 930.9 ± 4.7 kg/m3
345.15 K
  mass density: 929.7 ± 4.7 kg/m3
